Results from patent publication US8629275B2, “AHCY hydrolase inhibitors for treatment of hyper homocysteinemia” (Merck Sharp & Dohme Corp., priority 2008, dated 2014).

Columns and labels:
AHCY = target: T1, AHCY (Homo sapiens, UniProt P23526); test: Cell-based assay of AHCY inhibition (secreted homocysteine); details: secreted homocysteine from HEK293 and/or SH-SY5Y cells, 72 hrs; Example 1 average of n=4, Example 2 n=1
T1 construct: endogenous in cells; host or cells: HEK293 and/or SH-SY5Y
T1 sequence (P23526 2-432 limits assumed): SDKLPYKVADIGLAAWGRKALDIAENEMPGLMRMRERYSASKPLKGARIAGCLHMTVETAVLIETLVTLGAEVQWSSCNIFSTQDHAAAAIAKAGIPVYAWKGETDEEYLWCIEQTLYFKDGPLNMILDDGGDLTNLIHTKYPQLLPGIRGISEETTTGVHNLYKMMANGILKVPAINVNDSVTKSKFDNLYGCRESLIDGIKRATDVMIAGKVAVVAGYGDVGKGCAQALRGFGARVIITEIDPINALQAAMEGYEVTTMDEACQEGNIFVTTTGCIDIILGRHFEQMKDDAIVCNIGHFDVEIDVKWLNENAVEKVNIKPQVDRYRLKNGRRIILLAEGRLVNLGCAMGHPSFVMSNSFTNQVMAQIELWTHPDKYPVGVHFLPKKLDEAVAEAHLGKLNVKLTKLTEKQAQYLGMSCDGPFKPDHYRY
From the text: Cell-Based Assay of AHCY Inhibition
Post treatment collection of the adherent Hek293 and/or SH-SY5Y cells is also made for a viability and proliferation measure. Since the amount of secreted homocysteine is limited by the amount of SAH that is converted to homocysteine in the cells and its subsequent secretion, an EC50 measure and % inhibition relative to DMSO control cells can be made. Since the amount of secreted metabolites such as homocysteine can also be related to the absolute and cellular viability, an MTT (3-(4,5-Dimethylthiazol-2-yl)-2,5-diphenyltetrazolium bromide) measure of proliferation and relative cytotoxicty (as compared to control conditions) may also be made.
The day before compound treatment, plate 20,000 cells (Hek293 or SH-SY5Y) in 96 well cell culture treated plates in 100 μl of cell culture media (DMEM and 10% fetal bovine serum). • 2. Add fresh media plus compound (and DMSO treated controls) for 72 hrs. • 3. Collect conditioned media for measurement of secreted homocysteine and perform viability/proliferation assay on adherent cells. Measure of Secreted Homocysteine: • 1. Add 25 μl conditioned media, standard or control in 96-well assay plate • 2. Add 25 μl internal standard • 3. Add 10 μl reduction solution • 4. […] Detection: Fluorescence: Excitation 385 DM, Emission 515 nm • v. […] ReaDMEMd absorbance at 550 nm and 690 nM. • 6. Express readout as 550 nM-690 nM.

[1] = target: recombinant expressed human or mouse AHCY enzyme (UniProt P23526); test: In vitro AHCY activity assay (ThioGlo1 fluorescence, hydrolysis of SAH); format: biochemical; details: Example 1 average of n=3, Example 2 n=1
Method: In vitro AHCY Activity Assay
The AHCY enzyme assay is based on the principle of fluorescence emission following incubation of a reactive dye with the products of an AHCY catalyzed reaction. The reactive dye (Thioglo1) binds homocysteine through its thiol-containing moiety. The products of the AHCY catalyzed reaction, adenosine and homocysteine, are produced from the hydrolysis of SAH (s-adenosylhomocysteine) through AHCY's hydrolase activity.
The reaction is optimized in 96-, 384-, 1536- and 3456-assay plate formats, with recombinant expressed human or mouse AHCY enzyme. When run under initial velocity conditions, the assay is suitable for IC50 and % inhibition calculations.
• 1) ThioGlo1 (catalog 595501, Calbiochem); 100 mM in DMSO • 2) SAH (catalog A-9384, Sigma); 4.69 mM with 0.06 N HCl • 3) Aristeromycin (catalog A-0928, Sigma); 100 mM in DMSO • 4) NAD (catalog 43410, Sigma); 14.5 mM in water • 5) EDTA in 500 mM pH 8 (catalog BP2482-100, Fisher) • 6) DTT stock 200 mM in water • 7) AHCY enzyme (diluted with 100 mM tris pH7.5) Dilutions Immediately Prior to use: • 1. SAH 750 μM (10×) (dilute with 100 mM Tris pH 7.5) • 2. Aristeromycin (10×) (dilute to 1 mM with 100 mM Tris pH7.5) • 3. ThioGlo1 (10×) (dilute to 100 μM in Tris pH7.5) • 4. AHCY assay buffer (3.3×): 3 μM DTT, 150 μM NAD, 3 mM EDTA Protocol: As per 96-Assay Plate Well • 1. […] Read plate (Ex 380 Em 510)

[2] = mice; Shea et al, Neuromolecular Medicine 2004; cited from earlier work

`Nc1ncc(F)c2c1ncn2[C@@H]1C=C[C@@H](O)[C@H]1O` [Example 2, (1S, 2R, 5R)-5-(4-amino-7-fluoro-1H-imidazo[4,5-c]pyridin-1-yl)cyclopent-3-ene-1,2-diol] gave an IC50 (AHCY) of 28.2 nM and an IC50 [1] of 17900 nM.

In the case of `Nc1nccc2c1ncn2[C@@H]1O[C@H](CO)[C@@H](O)[C@H]1O` [3-deaza-adenosine], the “oxidative damage and cognitive impairment” value [2] is listed as “prevent oxidative damage and cognitive impairment”.

`Nc1ncc(F)c2c1ncn2[C@@H]1CC[C@@H](O)[C@H]1O` [Example 1, (1R,2S,3R)-3-(4-amino-7-fluoro-1H-imidazo[4,5-c]pyridin-1-yl)cyclopentane-1,2-diol] gave an IC50 (AHCY) of 1.5 nM and an IC50 [1] of 42 nM.
